# Data reported in patent publication US20240109930A1, “TRIAZOLYL-METHYL SUBSTITUTED ALPHA-D-GALACTOPYRANOSIDE DERIVATIVES” (Idorsia Pharmaceuticals Ltd, priority 2021, published 2024).
# pIC50: −log10 of the molar value.
# Columns and labels:
# human Gal-3 (hGal-3) = human Gal-3 (hGal-3) (Homo sapiens (Human), UniProt P17931); experiment: Competitive binding assay: biotinylated hGal-3 binding to microplate-adsorbed asialofetuin (ASF); settings: IC50 values from several measurements given as geomean
# Chain of human Gal-3 (hGal-3) (P17931 whole entry): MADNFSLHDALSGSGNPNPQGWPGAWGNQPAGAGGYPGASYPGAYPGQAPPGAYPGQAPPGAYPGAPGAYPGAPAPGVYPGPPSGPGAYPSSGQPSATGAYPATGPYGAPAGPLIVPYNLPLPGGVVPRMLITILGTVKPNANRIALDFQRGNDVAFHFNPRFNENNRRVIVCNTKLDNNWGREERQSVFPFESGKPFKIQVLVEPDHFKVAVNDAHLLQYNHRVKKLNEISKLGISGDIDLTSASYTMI
# Experimental: (§1) The inhibitory activity of compounds is determined in competitive binding assays. This spectrophotometric assay measures the binding of biotinylated human Gal-3 (hGal-3) or human Gal-1 (hGal-1), respectively, to a microplate-adsorbed glycoprotein, asialofetuin (ASF) (Proc Natl Acad Sci USA. 2013 Mar. 26; 110(13):5052-7.). Alternatively, and preferably, a human Gal-1 version in which all six cysteines are substituted by serines may be used.
# (§2) Briefly, compounds are serially diluted in DMSO (working dilutions). ASF-coated 384well plates are supplemented with 22.8 μL/well of biotinylated hGal-3 or hGal-1 in assay buffer (i.e. 300-1000 ng/mL biotinylated hGal-3 or hGal-1) to which 1.2 μL of compound working dilutions are added and mixed.
# (§3) Plates are incubated for 3 hours at 4° C., then washed with cold assay buffer (3×50 uL), incubated for 1 hour with 25 μL/well of a streptavidin-peroxidase solution (diluted in assay buffer to 80 ng/mL) at 4° C., followed by further washing steps with assay buffer (3×50 uL). Finally, 25 μL/well of ABTS substrate is added.
# (§4) The calculated IC50 values may fluctuate depending on the daily assay performance. Fluctuations of this kind are known to those skilled in the art. IC50 values from several measurements are given as geomean values.
# human Gal-1 (hGal-1) = human Gal-1 (hGal-1) (Homo sapiens, UniProt P09382, C131S/C17S/C43S/C61S/C89S); experiment: Competitive binding assay: biotinylated hGal-1 binding to microplate-adsorbed asialofetuin (ASF); settings: IC50 values from several measurements given as geomean
# Experimental: as §1, §2, §3, §4
pIC50 (human Gal-3 (hGal-3)),pIC50 (human Gal-1 (hGal-1)),Compound
7.15,6.24,CO[C@@H]1[C@@H](n2cc(-c3ccc(F)c(F)c3F)nn2)[C@@H](O)[C@@H](CO)O[C@@H]1Cn1cc(C2(C)COC2)nn1 [Ex 3.2.6.]
7.40,6.33,CO[C@@H]1[C@@H](n2cc(-c3ccc(Cl)c(F)c3F)nn2)[C@@H](O)[C@@H](CO)O[C@@H]1Cc1cn([C@@]2(C(F)(F)F)C[C@H]3C[C@H]3C2)nn1 [Ex 2.1.69.]
7.52,5.61,"CO[C@@H]1[C@@H](n2cc(-c3ccc(Br)c(F)c3F)nn2)[C@@H](O)[C@@H](CO)O[C@@H]1Cc1cn([C@@H]2CC[C@@H]2F)nn1 (relative stereo) [Example 4.1.88.AB, (2R,3R,4S,5R,6R)-4-(4-(4-bromo-2,3-difluorophenyl)-1H-1,2,3-triazol-1-yl)-6-((1-((1R*,2S*)-2-fluorocyclobutyl)-1H-1,2,3-triazol-4-yl)methyl)-2-(hydroxymethyl)-5-methoxytetrahydro-2H-pyran-3-ol]"
6.77,5.27,CO[C@@H]1[C@@H](n2cc(-c3ccc(Cl)c(F)c3F)nn2)[C@@H](O)[C@@H](CO)O[C@@H]1Cn1cc(C2(O)CC(F)(F)C2)nn1 [Ex 2.2.85.]
7.40,6.08,COCC1(n2cc(C[C@H]3O[C@H](CO)[C@H](O)[C@H](n4cc(-c5ccc(C)c(F)c5F)nn4)[C@H]3OC)nn2)COC1 [Ex 1.1.21.]
7.70,6.19,CO[C@@H]1[C@@H](n2cc(-c3ccc(Br)c(F)c3F)nn2)[C@@H](O)[C@@H](CO)O[C@@H]1Cc1cn(C2(C(F)F)COC2)nn1 [Ex 4.1.53.]
7.40,5.84,CO[C@@H]1[C@@H](n2cc(-c3ccc(Br)c(F)c3F)nn2)[C@@H](O)[C@@H](CO)O[C@@H]1Cc1cn(C2(C)COC2)nn1 [Ex 4.1.6.]
7.10,5.27,"CO[C@@H]1[C@@H](n2cc(-c3ccc(C)c(F)c3F)nn2)[C@@H](O)[C@@H](CO)O[C@@H]1Cn1cc(C(C)(C)O)nn1 [Ex 1.2.34., (2R,3R,4S,5R,6R)-4-(4-(2,3-Difluoro-4-methylphenyl)-1H-1,2,3-triazol-1-yl)-2-(hydroxymethyl)-6-((4-(2-hydroxypropan-2-yl)-1H-1,2,3-triazol-1-yl)methyl)-5-methoxytetrahydro-2H-pyran-3-ol]"
7.30,5.38,CO[C@@H]1[C@@H](n2cc(-c3ccc(C)c(F)c3F)nn2)[C@@H](O)[C@@H](CO)O[C@@H]1Cc1cn(C23CC(C2)C3)nn1 [Ex 1.1.12.]
7.52,5.69,"CO[C@@H]1[C@@H](n2cc(-c3ccc(Br)c(F)c3F)nn2)[C@@H](O)[C@@H](CO)O[C@@H]1Cc1cn(C23COC(C)(C2)C3)nn1 [Ex 4.1.59., (2R,3R,4S,5R,6R)-4-(4-(4-bromo-2,3-difluorophenyl)-1H-1,2,3-triazol-1-yl)-2-(hydroxymethyl)-5-methoxy-6-((1-(1-methyl-2-oxabicyclo[2.1.1]hexan-4-yl)-1H-1,2,3-triazol-4-yl)methyl)tetrahydro-2H-pyran-3-ol]"
7.52,6.85,CO[C@@H]1[C@@H](n2cc(-c3ccc(F)c(F)c3F)nn2)[C@@H](O)[C@@H](CO)O[C@@H]1Cc1cn([C@]2(C)C[C@@H](O)C2)nn1 [Ex 3.1.27.]
7.30,5.99,CO[C@@H]1[C@@H](n2cc(-c3ccc(Br)c(F)c3F)nn2)[C@@H](O)[C@@H](CO)O[C@@H]1Cc1cn(C(C)(C)C(F)F)nn1 [Ex 4.1.28.]
7.30,5.83,CO[C@@H]1[C@@H](n2cc(-c3ccc(C)c(F)c3F)nn2)[C@@H](O)[C@@H](CO)O[C@@H]1Cc1cn(C2(CO)CC(F)(F)C2)nn1 [Ex 1.1.18.]
6.89,5.67,CO[C@@H]1[C@@H](n2cc(-c3ccc(F)c(F)c3F)nn2)[C@@H](O)[C@@H](CO)O[C@@H]1Cn1cc(C2(O)CC2)nn1 [Ex 3.2.36.]
7.10,5.30,CO[C@@H]1[C@@H](n2cc(-c3ccc(C)c(F)c3F)nn2)[C@@H](O)[C@@H](CO)O[C@@H]1Cc1cn(C23CC(C(F)(F)F)(C2)C3)nn1 [Ex 1.1.24.]
